US20140249084A1, “PTH-CONTAINING THERAPEUTIC/PROPHYLACTIC AGENT FOR OSTEOPOROSIS, CHARACTERIZED IN THAT PTH IS ADMINISTERED ONCE A WEEK IN A UNIT DOSE OF 100 TO 200 UNITS” (ASAHI KASEI PHARMA CORPORATION, priority 2009, published 2014)
Counter-ions that a name gives are not always drawn.

Experiments:
[1] = test system: patients having prednisone-induced osteoporosis complicated by arthralgia; settings: daily administration, Non-patent References 23 and 24; cited from earlier work
[2] = test system: nausea and vomiting associated with administration of the test drug; assay: Prescriptions for nausea and vomiting associated with administration of the test drug; type: in vivo, human; settings: summary of Table 18
Excerpt: The administration period and efficacy of various drugs to treat nausea and vomiting associated with administration of the test drug were studied.

[3] = conventional daily administration; osteoporosis patients having moderate renal dysfunction; Non-patent Reference 32; cited from earlier work
[4] = 20 μg/day, Non-patent Reference 1, cited from earlier work

Row | Molecule | Effect on nausea and vomiting associated with administration of the test drug (summary) [2] | further results
1 | CC[C@H](C)[C@H](NC(=O)[C@H](CCC(=O)O)NC(=O)[C@H](CO)NC(=O)[C@@H](NC(=O)[C@@H](N)CO)C(C)C)C(=O)N[C@@H](CCC(N)=O)C(=O)N[C@@H](CC(C)C)C(=O)N[C@@H](CCSC)C(=O)N[C@@H](Cc1cnc[nH]1)C(=O)N[C@@H](CC(N)=O)C(=O)N[C@@H](CC(C)C)C(=O)NCC(=O)N[C@@H](CCCCN)C(=O)N[C@@H](Cc1cnc[nH]1)C(=O)N[C@@H](CC(C)C)C(=O)N[C@@H](CC(N)=O)C(=O)N[C@@H](CO)C(=O)N[C@@H](CCSC)C(=O)N[C@@H](CCC(=O)O)C(=O)N[C@@H](CCCN=C(N)N)C(=O)N[C@H](C(=O)N[C@@H](CCC(=O)O)C(=O)N[C@@H](Cc1c[nH]c2ccccc12)C(=O)N[C@@H](CC(C)C)C(=O)N[C@@H](CCCN=C(N)N)C(=O)N[C@@H](CCCCN)C(=O)N[C@@H](CCCCN)C(=O)N[C@@H](CC(C)C)C(=O)N[C@@H](CCC(N)=O)C(=O)N[C@@H](CC(=O)O)C(=O)N[C@H](C(=O)N[C@@H](Cc1cnc[nH]1)C(=O)N[C@@H](CC(N)=O)C(=O)N[C@@H](Cc1ccccc1)C(=O)O)C(C)C)C(C)C [Forteo, teriparatide (rDNA origin) injection] |  | Bone strengthening effect compared with Fosamax [1]: stronger bone strengthening effect than Fosamax
2 | CCOc1cc(N)c(Cl)cc1C(=O)NCC1CN(Cc2ccc(F)cc2)CCO1 (stereo not drawn) [Gasmotin, mosapride citrate] | effective | 
3 | NC(N)=Nc1nc(CSCCC(N)=NS(N)(=O)=O)cs1 [Gaster D, famotidine] | effective | 
4 | O=c1[nH]c2ccccc2n1CCCN1CCC(n2c(=O)[nH]c3cc(Cl)ccc32)CC1 [Nauzelin, domperidone] | effective | 
5 | CCN(CC)CCNC(=O)c1cc(Cl)c(N)cc1OC [Primperan, metoclopramide] | effective | 
6 | Cc1c(OCC(F)(F)F)ccnc1C[S+]([O-])c1nc2ccccc2[nH]1 (stereo not drawn) [Takepron OD, lansoprazole] | effective | 
7 | PTH: PTH (parathyroid hormone) in conventional daily administration (20 μg/day), results from cited literature |  | Patients with serum calcium exceeding 11.0 mg/mL after administration [3]: 11.76%; Patients with persistent hypercalcemia [4]: 3%; Patients with hypercalcemia ([4]; blood samples 4 to 6 hours after administration): 11%
